According to patent US10590365B2, “Compounds for a controlled release of active molecules” (FIRMENICH SA, priority 2013, dated 2020):

Legend:
[1] = test system: Propionibacterium acnes ATCC 6919; assay: Incubation of pro-perfume glucuronide mixture with skin bacteria; remaining conjugate by LC-MS; type: cell-based; conditions: After 5 days; for Glucuronide-conjugates remaining after incubation with Propionibacterium acnes (in percentage), Average: average of incubations 1-3; for Glucuronide-conjugates remaining after incubation with Propionibacterium acnes (in percentage): blank fixed as 100%
Method: (§1) The liberation of perfuming alcohols from the present invention's compounds of formula (I) was tested in vitro during incubation with defined skin bacteria strains.
(§2) c) Bacterial solutions: Two underarm bacterial isolates, Propionibacterium acnes ATCC 6919 and Staphylococcus warneri DSM 20316 (identified by 16S rDNA sequencing by Deutsche Sammlung von Mikroorganismen and ZellKulturen DSMZ, Germany), were cultivated on SCH agar at 37° C. during 72 h in anaerobic conditions and on TSA at 37° C. during 24 h, respectively.
One isolated colony of P. acnes from the pure primary culture on SCH agar was inoculated on a new SCH agar and incubated at 37° C., 72 h in anaerobic conditions. After incubation, the whole culture was dissociated by shaking in 20 ml of NaCl 0.9% then centrifuged 10 min at 5000 rpm at room temperature. The pellet was washed in NaCl 0.9% and concentrated two times in NaCl 0.9%.
(§3) A pro-perfume glucuronides mixture containing menthol glucuronide (6 mg/kg), phenethylol β-glucuronide (10.75 mg/kg) and raspberry ketone β-glucuronide (13 mg/kg) in water was incubated with either: • 500 μL of the previously described bacterial solution • 10 μL of commercial enzymes β-glucuronidase/arylsulfatase from Helix pomatia (RocheDiagnostic, Indianapolis, USA) and 490 μL of NaCl 0.9% as a positive control • 500 μl of NaCl 0.9% as a negative controlfor the incubation with bacteria.
(§4) Each solution was prepared in duplicate (in glass vials).
(§5) The vials were placed in a heating block at 37° C. under gentle stirring from 1 to 7 days depending on the bacteria solutions. At the end of the incubation time, vials were cooled down to room temperature, 150 μL was mixed with 50 μL of LC-MS solvent B, filtered through acrodisc and 1 μL was injected on LC-MS (peak areas considered were measured in SIM mode according to their respective molecular weights). Comparisons were made between glucuronides (HESI−) or glucosides (HESI+) areas in incubated solutions and glucuronides (HESI−) or glucosides (HESI+) areas in the blanks (fixed as 100%).

[2] = test system: Staphylococcus warneri DSM 20316; assay: Incubation of pro-perfume conjugates with skin bacteria; remaining conjugate by LC-MS; type: cell-based
Method: as §1, §2
Similarly, one colony of S. warneri from the pure primary culture on TSA was inoculated on a new TSA and incubated for 24 h at 37° C. After incubation, the whole culture was dissociated by shaking in 20 ml of NaCl 0.9% then centrifuged 15 min at 5000 rpm, 4° C. The pellet was washed in NaCl 0.9% and concentrated two times in NaCl 0.9%.
as §3, §4, §5

[3] = Table 2, After 1 day, incubation 1
[4] = Table 2, After 1 day, incubation 2
[5] = Table 3, After 1 day, incubation 1
[6] = Table 3, After 1 day, incubation 2
[7] = Table 3, After 5 day, incubation 1
[8] = Table 3, After 5 day, incubation 2

Compound | Glucuronide-conjugates remaining after incubation with Propionibacterium acnes (in percentage), Average [1] | Glucuronide-conjugates remaining after incubation with Propionibacterium acnes (in percentage) ([1]; incubation 1) | Glucuronide-conjugates remaining after incubation with Propionibacterium acnes (in percentage) ([1]; incubation 2) | Glucuronide-conjugates remaining after incubation with Propionibacterium acnes (in percentage) ([1]; incubation 3) | Glucuronide-conjugates remaining after incubation with S. warneri (in percentage), Average ([2]; Table 2, After 1 day) | Glucuronide-conjugates remaining after incubation with S. warneri (in percentage) [2, 3] | Glucuronide-conjugates remaining after incubation with S. warneri (in percentage) [2, 4] | Glucuronide-conjugates remaining after incubation with S. warneri (in percentage), Average ([2]; Table 3, After 1 day) | Glucuronide-conjugates remaining after incubation with S. warneri (in percentage) [2, 5] | Glucuronide-conjugates remaining after incubation with S. warneri (in percentage) [2, 6] | Glucuronide-conjugates remaining after incubation with S. warneri (in percentage), Average ([2]; Table 3, After 5 day) | Glucuronide-conjugates remaining after incubation with S. warneri (in percentage) [2, 7] | Glucuronide-conjugates remaining after incubation with S. warneri (in percentage) [2, 8]
CC(=O)CCc1ccc(O[C@@H]2O[C@H](C(=O)O)[C@@H](O)[C@H](O)[C@H]2O)cc1 [(4-hydroxyphenyl)-2-butanone-β-D-glucopyranosiduronic acid] | 58% | 61% | 58% | 57% | 0% | 0% | 0% | – | – | – | – | – | –
CC1CCC(C(C)C)C(O)C1 (centres unmarked) [menthol] | – | – | – | – | – | – | – | 74% | 72% | 77% | 34% | 36% | 31%
CC1CCC(C(C)C)C(OC2O[C@H](C(=O)O)[C@@H](O)[C@H](O)[C@H]2O)C1 (some centres unmarked) [p-menthan-3-ol, glucopyranosiduronic acid 1-menthyl] | 7% | 5% | 9% | 7% | 0% | 1% | 0% | – | – | – | – | – | –
C=CCc1ccc(O[C@@H]2O[C@H](C(=O)O)[C@@H](O)[C@H](O)[C@H]2O)c(OC)c1 [β-D-glucopyranosiduronic acid 2-methoxy-4-(2-propen-1-yl)phenyl] | – | – | – | – | – | – | – | 100% | 130% | 120% | 0% | 0% | 0%
COc1cc(C=O)ccc1O[C@@H]1O[C@H](C(=O)O)[C@@H](O)[C@H](O)[C@H]1O [β-D-glucopyranosiduronic acid 4-formyl-2-methoxyphenyl] | – | – | – | – | – | – | – | 100% | 84% | 96% | 0% | 0% | 0%
